The subject of test [1] is several mammalian cell types. The following applies: cited from earlier work.
The test system of the next test is neonatal cardiomyocytes. The test is described as follows: Mitosox mitochondrial superoxide in Angiotensin II-stimulated neonatal cardiomyocytes (flow cytometry). Type of test: cell-based, mouse. Particulars: NAC 0.5 mM, Angiotensin II 1 μM for 3 hours, Mitosox fluorescence. On the procedure:
Ventricles from mouse neonates younger than 72 hours will be dissected, minced, and enzymatically digested with Blendzyme 4 (45 mg/mL, Roche). After enzymatic digestion, cardiomyocytes will be enriched using differential pre-plating for 2 hours, and seeded on fibronectin-coated culture dishes for 24 hours in DMEM (Gibco) with 20% Fetal Bovine Serum (Sigma) and 25 μM Arabinosylcytosine (Sigma). Cardiomyocytes will be stimulated with Angiotensin II (1 μM) for 3 hours in serum-free DMEM containing 0.5% insulin transferrin-selenium (Sigma), 2 mM glutamine, and 1 mg/mL BSA. […] Samples will be analyzed using excitation/emission of 488/625 nm by flow cytometry. Flow data will be analyzed using FCS Express (De Novo Software, Los Angeles, Calif., U.S.A.), and presented as histogram distributions of Mitosox fluorescence intensity.
In general terms: A flow cytometer gives signals particle by particle.

As for 2′,6′-Dmt-D-Arg-Phe-Lys-NH2, the “penetration of the plasma membrane” value in test [1] was “readily penetrates the plasma membrane of several mammalian cell types in an energy-independent manner”.
In the case of `CC(=O)N[C@@H](CS)C(=O)O` [N-acetyl cysteine], the “effect on the level of mitochondrial ROS after Ang II” value in the test with neonatal cardiomyocytes was “not show any effect”.

Source of the values: patent publication US20190023738A1, “THERAPEUTIC COMPOSITIONS INCLUDING PHENAZINE-3-ONE AND PHENOTHIAZINE-3-ONE DERIVATIVES AND USES THEREOF” (Stealth BioTherapeutics Corp, priority 2015, published 2019).
